# Experimental data as given in patent publication US10624887B2, “Compositions of (-)-17-(cyclobutylmethyl)morphinan-3,14,-diol” (priority 2010, dated 2020).
# Entries after “also recorded” stand apart in the source; their conditions may differ. Where two headings read alike, the source gives them in different places.
# Columns and labels:
# [1] = test system: streptozotocin (STZ) induced diabetes neuropathy; assay: Streptozotocin induced diabetic neuropathy, mechanical allodynia (von Frey filaments); assay type: in vivo, Wistar rats; conditions: STZ diabetic neuropathic rats
# Experimental: (§1) The aim of this study was to evaluate the effect of oral administration of butorphanol in rats with streptozotocin (STZ) induced diabetes neuropathy. A single injection of streptozotocin (STZ) (40-70 mg/kg, i.p.) was used to induce diabetes in rats. The primary measurements were made mechanical and thermal allodynia designed to detect effects of the treatment(s) on neuropathic pain.
# (§2) Wistar rats weighing 250±20 g were maintained on standard laboratory diet and having free access to tap water ad lib were employed in the present study. They were housed in the animal house and were exposed to 12 hr cycle of light and dark. The experiments were conducted in a semi-sound proof laboratory. Care of the animals was in accordance with guidelines for experimentation on animals.
# The STZ-induced diabetes model was adapted from Arison et al (1967). […]
# Mechano-allodynia was assessed using von Frey filaments. […] Both hind paws were tested for allodynia and the average of the two was recorded. Results were expressed in grams and determined before and 30 and 60 min after the administration of the test drugs.
# (§3) The anti-nociceptive effect was plotted assessed having time (relative to dosing time point) on the x-axis and percent maximum possible effect (% MPE) on the y-axis. The results were expressed as mean±standard error of means (S.E.M.). […]
# [2] = test system: streptozotocin (STZ) induced diabetes neuropathy; assay: Streptozotocin induced diabetic neuropathy, cold allodynia (acetone drop test); assay type: in vivo, Wistar rats; conditions: STZ diabetic neuropathic rats
# Experimental: as §1, §2
# The STZ-induced diabetes model was adapted from Arison et al (1967).
# On the experimental day 1 all rats were fasted 6-8 hrs prior to STZ treatment Immediately prior to the injection, STZ was dissolved in 50 Mm sodium citrate buffer (pH 4.5) to a final concentration of 10 mg/ml. […]
# (§4) For the assessment of cold allodynia, which was stable for 3 weeks, the rats were placed on a wire mesh covered with a plastic dome and were allowed to habituate until the exploratory behavior diminished. Cold allodynia was measured as the number of foot withdrawal responses after application of stimuli to the plantar surface of the paw. […] Acetone was applied two times (once every 5 min) on the left paw, and the number of reactions (shaking, tapping, or licking) was counted during 30 sec. […] The score was expressed as accumulated numbers of reactions over the trials and determined before and 30 and 60 min after administration of the test drugs. Each individual test was expressed as a percentage of maximum possible effect (% MPE): […]
# (§5) MPE (%) at 30 min time point was employed as a quantitative measure of the analgesic effect of the test drugs.
# The anti-nociceptive effect was plotted assessed having time (relative to dosing time point) on the x-axis and percent maximum possible effect (% MPE) on the y-axis. […]
# [3] = intranasal, single dose, cited from earlier work
# [4] = oral; dosage form that models extended release
# [5] = cited from earlier work
# [6] = test system: paclitaxel induced painful neuropathy; assay: Paclitaxel induced painful neuropathy, cold allodynia (acetone drop test); assay type: in vivo, Wistar rats; conditions: paclitaxel neuropathic rats
# Description: The aim of this study was to evaluate the effect of oral administration of butorphanol in rats with paclitaxel induced painful neuropathy. The primary measurements were made mechanical and thermal allodynia designed to detect effects of the treatment(s) on neuropathic pain.
# as §2
# Rats were injected on five alternate days (day 4, 6, 8, 10 & 12) with paclitaxel (2 mg/kg i.p.) using an injection volume of 2 ml/kg. Thus, the cumulative dose of paclitaxel was computed to be 10 mg/kg. Tests took place ten days after the last injection and continued over the next three weeks. […]
# as §4, §5, §3
smiles,measurement,setting,value
"Oc1ccc2c(c1)[C@@]13CCCC[C@@]1(O)[C@@H](C2)N(CC1CCC1)CC3 [butorphanol, (−)17-(Cyclobutylmethyl)morphinan-3,14-diol]",mechanical withdrawal threshold,"[1]; oral 1, 3, 10, 30 mg/kg, FIG. 19",dose dependent increase; also recorded: significant increase
same,time of peak effect post-administration (mechanical allodynia),[1]; oral,30 min
same,cold allodynia score,"[2]; oral 1, 3, 10, 30 mg/kg, FIG. 20",dose dependent decrease
same,cold allodynia withdrawal threshold in comparison to the control readings,[2]; oral,significant increase
same,time of peak effect post-administration (cold allodynia),[2]; oral,30 min
same,dizziness,[3]; 1 mg,46%
same,headache,[3]; 1 mg,46%
same,nausea,[3]; 1 mg,38%
same,oxygen desaturation,[3]; 1 mg,3%
same,vomiting,[3]; 1 mg,17%
same,dizziness,[3]; 2 mg,58%
same,headache,[3]; 2 mg,29%
same,nausea,[3]; 2 mg,46%
same,oxygen desaturation,[3]; 2 mg,3%
same,vomiting,[3]; 2 mg,17%
same,therapeutic effect,[4],robust therapeutic effects
same,mean half-life,[5]; in vivo,about 5 hours
same,oral bioavailability,[5]; widely reported,poor
same,cold allodynia withdrawal threshold in comparison to the control readings,[6]; oral,significant increase
same,time of peak effect post-administration (cold allodynia),[6]; oral,30 min
same,cold allodynia score,"[6]; p.o. 0.01, 0.03, 0.1, 0.3 mg/kg, FIG. 18",dose dependent decrease
